Data published in US20180071317A1, “USE OF AGENTS THAT ALTER THE PERITUMORAL ENVIRONMENT FOR THE TREATMENT OF CANCER” (SERVICIO ANDALUZ DE SALUD, priority 2011, published 2018).

What was measured:
[1] = tested on: fibroblasts (PHF) co-cultured with tumor cells of human gastric adenocarcinoma (23132/87); experiment: Marker expression (IHC) in PHF co-cultured with 23132/87 tumor cells; assay type: cell-based; conditions: co-culture with 23132/87; SP 1 μM + antagonist 1 μM; 48 h;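 also: cultures grown in fresh plasma from a healthy human donor, values give the percentage of PHF fibroblasts positive for the marker, each experiment run in six replicates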
[2] = tested on: fibroblasts (PHF) co-cultured with human fibrosarcoma tumor cells (HT-1080); experiment: Marker expression (IHC) in PHF co-cultured with HT-1080 tumor cells; assay type: cell-based; conditions: co-culture with HT-1080; SP 1 μM + antagonist 1 μM; 48 h;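 also: cultures grown in fresh human plasma from a healthy donor, six replicates, value is percent of fibroblasts positive for the marker, compared with fibroblasts cultured without tumor cells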
Experimental: (§1) All cultures were maintained 48 hours, following which the same cells were included in paraffin blocks for subsequent analysis of the expression of different markers by immunohistochemistry (see Example 1). […] All experiments were carried out sixfold. Analyzed markers in fibroblast cells (stromal cells) were: TGF-α, TGF-β1, TGF-β2, TGF-β3, SPARC, MMP-3, MMP-7, MMP-9, MMP-11, MMP-13 and MMP-14.

[3] = tested on: fibroblasts of tumors produced by human rhabdomyosarcoma tumor line (A-204); experiment: Marker expression (IHC) in fibroblasts of tumor or peritumoral area, mouse model, A-204; assay type: in vivo; conditions: A-204 tumors in mice, 30 mg/kg/day oral, 7 days
Experimental: In vitro tests conducted in Example 5 are now carried out in an experimental model in mice in vivo. […] Subsequently, the expression in fibroblasts tumoral and peritumoral area of molecular markers associated with progression and maintenance of tumors: TGF-α, TGF-β1, TGF-β2, TGF-β3, MMP-7, MMP-11, MMP-14 were analyzed by immunohistochemistry.
Were injected with 2×10^7 cells tumors (corresponding, in each case to each of the tumor types as specified in Table 9) in 200 of PBS subcutaneously μl. […] Mice were randomized into two groups when the tumors reached a volume of 75 mm^3 One group was treated with non-peptide receptor antagonists NK1 and the other with placebo 200μ1. […] Tumors and samples of non-neoplastic stromal areas remote from the tumor were halved, formalin fixed (4%) and then were included in paraffin blocks for analysis by immunohistochemistry.
The expression on fibroblast cells obtained in the animal model was analyzed by immunohistochemistry, of the above markers: TGF-α, TGF-β1, TGF-β2, TGF-β3, MMP-7, MMP-1 1, MMP-14MP-14. Tables 32 to 35 depict the type of label used and the average percentage of fibroblasts present in non-tumor areas, tumor and peritumoral (±SD) which were expressing the marker shown in each of the tumor types developed from of the different cell lines used. This process was realized in mice treated with non-peptide antagonists of NK1 receptor and in untreated animals (control).

[4] = tested on: fibroblasts (PHF) co-cultured with tumor cells of human Burkitt lymphoma (CA-46); experiment: Marker expression (IHC) in PHF co-cultured with CA-46 tumor cells; assay type: cell-based; conditions: PHF co-cultured with CA-46 + SP + NK1 antagonist;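 also: percentage of PHF fibroblasts positive for each marker, cultures grown in fresh human plasma from a healthy donor, six replicates, compared with fibroblasts cultured alone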
[5] = tested on: fibroblasts (PHF) co-cultured with tumor cells of human endometrial carcinoma (AN3-CA); experiment: Marker expression (IHC) in PHF co-cultured with AN3-CA tumor cells; assay type: cell-based; conditions: co-culture with AN3-CA; SP 1 μM + antagonist 1 μM; 48 h;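 also: cultured in fresh healthy-donor blood plasma with added antibiotic-antimycotic, run in six replicates, values give percent of fibroblasts positive for each marker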
Experimental: as §1

[6] = tested on: co-cultures of tumor cells-endothelial cells (C-12210); experiment: Inhibition/survival in co-cultures of primary human tumor cells and endothelial cells; assay type: cell-based; conditions: survival in reference to control, SP 1 μM, Aprepitant 1 μM
Experimental: To check that the interaction of primary tumor cells extracted directly from human with human vascular endothelial cells, promotes the survival of both cell types, co-cultures were performed microvascular endothelial cells from juvenile foreskins (PromoCell GmbH, Sickingenstraβe 63/65, D-69126 Heidelberg, Germany; reference C-12210) with tumor cells obtained directly from primary human tumors.
A total of 6 wells containing tumor cells were used as control for survival. Another 6 wells containing tumor cells were cultured with addition of endothelial cells.
Subsequently, cells were embedded in paraffin for analysis by immunohistochemistry. In order to identify the different cell types and quantity of them [They were labelled with primary antibodies specific for human endothelial cells (anti-CD31), carcinoma cells (Anti-Cytokeratins Spread Spectrum), glioma (Anti-glial fibrillary acidic protein), fibrosarcoma and malignant fibrous histiocytoma (Anti-Smooth Muscle Actin), Ewing sarcoma (Anti-CD99), Melanoma (Anti-HMB45), leukemias and lymphomas (Anti-Common Antigen Leucitario) and myeloma (anti CD 138). All antibodies are distributed by Dako and were used at the same concentration which is supplied (supplied pre-diluted—“ready to use”).

[7] = Carcinoma of lung, (Small cell carcinoma in Table 36)
[8] = Carcinoma of lung, Non Small Cell Carcinoma in Table 36
[9] = Carcinoma of thyroid, (Follicular Carcinoma in Table 36)
[10] = Carcinoma of thyroid, (Papillary Carcinoma in Table 36)

C[C@@H](O[C@H]1OCCN(Cc2n[nH]c(=O)[nH]2)[C@H]1c1ccc(F)cc1)c1cc(C(F)(F)F)cc(C(F)(F)F)c1 [Aprepitant]
PHF cells expressing MMP-3 [1]: 0%
PHF cells expressing MMP-7 [1]: 0%
PHF cells expressing MMP-9 [1]: 0%
PHF cells expressing MMP-11 [1]: 0%
PHF cells expressing MMP-13 [1]: 0%
PHF cells expressing MMP-14 [1]: 0%
PHF cells expressing SPARC [1]: 0%
PHF cells expressing TGF-α [1]: 0%
PHF cells expressing TGF-β1 [1]: 0%
PHF cells expressing TGF-β2 [1]: 0%
PHF cells expressing TGF-β3 [1]: 0%
PHF cells expressing MMP-3 [2]: 0%
PHF cells expressing MMP-7 [2]: 0%
PHF cells expressing MMP-9 [2]: 0%
PHF cells expressing MMP-11 [2]: 0%
PHF cells expressing MMP-13 [2]: 0%
PHF cells expressing MMP-14 [2]: 0%
PHF cells expressing SPARC [2]: 0%
PHF cells expressing TGF-α [2]: 0%
PHF cells expressing TGF-β1 [2]: 0%
PHF cells expressing TGF-β2 [2]: 0%
PHF cells expressing TGF-β3 [2]: 0%
fibroblasts expressing MMP-7 [3]: 0%
fibroblasts expressing MMP-11 [3]: 0%
fibroblasts expressing MMP-14 [3]: 0%
fibroblasts expressing TGF-α [3]: 0%
fibroblasts expressing TGF-β 1 [3]: 0%
fibroblasts expressing TGF-β 2 [3]: 0%
fibroblasts expressing TGF-β 3 [3]: 0%
cells expressing MMP-3 [4]: 0%
cells expressing MMP-7 [4]: 0%
cells expressing MMP-9 [4]: 0%
cells expressing MMP-11 [4]: 0%
cells expressing MMP-13 [4]: 0%
cells expressing MMP-14 [4]: 0%
cells expressing SPARC [4]: 0%
cells expressing TGF-α [4]: 0%
cells expressing TGF-β1 [4]: 0%
cells expressing TGF-β2 [4]: 0%
cells expressing TGF-β3 [4]: 0%
PHF cells expressing MMP-3 [5]: 0%
PHF cells expressing MMP-7 [5]: 0%
PHF cells expressing MMP-9 [5]: 0%
PHF cells expressing MMP-11 [5]: 0%
PHF cells expressing MMP-13 [5]: 0%
PHF cells expressing MMP-14 [5]: 0%
PHF cells expressing SPARC [5]: 0%
PHF cells expressing TGF-α [5]: 0%
PHF cells expressing TGF-β1 [5]: 0%
PHF cells expressing TGF-β2 [5]: 0%
PHF cells expressing TGF-β3 [5]: 0%
Endothelial cells co-cultured with tumor cells + SP + Aprepitant ([6]; Carcinoma of Colon): 57 ± 3%
Tumor cells co-cultured with endothelial cells + SP + Aprepitant ([6]; Carcinoma of Colon): 61 ± 3%
Endothelial cells co-cultured with tumor cells + SP + Aprepitant ([6]; Carcinoma of Pancreas): 52 ± 4%
Tumor cells co-cultured with endothelial cells + SP + Aprepitant ([6]; Carcinoma of Pancreas): 46 ± 6%
Endothelial cells co-cultured with tumor cells + SP + Aprepitant ([6]; Carcinoma of breast): 56 ± 6%
Tumor cells co-cultured with endothelial cells + SP + Aprepitant ([6]; Carcinoma of breast): 56 ± 3%
Endothelial cells co-cultured with tumor cells + SP + Aprepitant ([6]; Carcinoma of cervix): 45 ± 3%
Tumor cells co-cultured with endothelial cells + SP + Aprepitant ([6]; Carcinoma of cervix): 46 ± 3%
Endothelial cells co-cultured with tumor cells + SP + Aprepitant ([6]; Carcinoma of endometrial): 57 ± 4%
Tumor cells co-cultured with endothelial cells + SP + Aprepitant ([6]; Carcinoma of endometrial): 49 ± 3%
Endothelial cells co-cultured with tumor cells + SP + Aprepitant [6, 7]: 46 ± 7%
Tumor cells co-cultured with endothelial cells + SP + Aprepitant [6, 7]: 63 ± 3%
Endothelial cells co-cultured with tumor cells + SP + Aprepitant [6, 8]: 43 ± 4%
Tumor cells co-cultured with endothelial cells + SP + Aprepitant [6, 8]: 65 ± 4%
Endothelial cells co-cultured with tumor cells + SP + Aprepitant ([6]; Carcinoma of ovarian): 49 ± 5%
Tumor cells co-cultured with endothelial cells + SP + Aprepitant ([6]; Carcinoma of ovarian): 54 ± 4%
Endothelial cells co-cultured with tumor cells + SP + Aprepitant ([6]; Carcinoma of prostate): 54 ± 4%
Tumor cells co-cultured with endothelial cells + SP + Aprepitant ([6]; Carcinoma of prostate): 47 ± 5%
Endothelial cells co-cultured with tumor cells + SP + Aprepitant ([6]; Carcinoma of stomach): 65 ± 2%
Tumor cells co-cultured with endothelial cells + SP + Aprepitant ([6]; Carcinoma of stomach): 54 ± 5%
Endothelial cells co-cultured with tumor cells + SP + Aprepitant [6, 9]: 45 ± 3%
Tumor cells co-cultured with endothelial cells + SP + Aprepitant [6, 9]: 46 ± 6%
Endothelial cells co-cultured with tumor cells + SP + Aprepitant [6, 10]: 56 ± 6%
Tumor cells co-cultured with endothelial cells + SP + Aprepitant [6, 10]: 56 ± 4%
Endothelial cells co-cultured with tumor cells + SP + Aprepitant ([6]; Fibrosarcoma): 45 ± 6%
Tumor cells co-cultured with endothelial cells + SP + Aprepitant ([6]; Fibrosarcoma): 55 ± 6%
Endothelial cells co-cultured with tumor cells + SP + Aprepitant ([6]; Glioma): 56 ± 5%
Tumor cells co-cultured with endothelial cells + SP + Aprepitant ([6]; Glioma): 49 ± 4%
Endothelial cells co-cultured with tumor cells + SP + Aprepitant ([6]; Hodgkin's Lymphoma): 48 ± 4%
Tumor cells co-cultured with endothelial cells + SP + Aprepitant ([6]; Hodgkin's Lymphoma): 74 ± 6%
Endothelial cells co-cultured with tumor cells + SP + Aprepitant ([6]; Leukemia B): 46 ± 5%
Tumor cells co-cultured with endothelial cells + SP + Aprepitant ([6]; Leukemia B): 54 ± 6%
Endothelial cells co-cultured with tumor cells + SP + Aprepitant ([6]; Leukemia T): 56 ± 6%
Tumor cells co-cultured with endothelial cells + SP + Aprepitant ([6]; Leukemia T): 56 ± 5%
Endothelial cells co-cultured with tumor cells + SP + Aprepitant ([6]; Malignant fibrous histiocytoma): 56 ± 6%
Tumor cells co-cultured with endothelial cells + SP + Aprepitant ([6]; Malignant fibrous histiocytoma): 44 ± 5%
Endothelial cells co-cultured with tumor cells + SP + Aprepitant ([6]; Melanoma): 56 ± 6%
Tumor cells co-cultured with endothelial cells + SP + Aprepitant ([6]; Melanoma): 46 ± 5%
Endothelial cells co-cultured with tumor cells + SP + Aprepitant ([6]; Myeloma): 54 ± 8%
Tumor cells co-cultured with endothelial cells + SP + Aprepitant ([6]; Myeloma): 64 ± 3%
Endothelial cells co-cultured with tumor cells + SP + Aprepitant ([6]; Neuroblastoma): 49 ± 4%
Tumor cells co-cultured with endothelial cells + SP + Aprepitant ([6]; Neuroblastoma): 55 ± 6%
Endothelial cells co-cultured with tumor cells + SP + Aprepitant ([6]; Non-Hodgkin's Lymphoma B): 67 ± 5%
Tumor cells co-cultured with endothelial cells + SP + Aprepitant ([6]; Non-Hodgkin's Lymphoma B): 49 ± 6%
Endothelial cells co-cultured with tumor cells + SP + Aprepitant ([6]; Non-Hodgkin's Lymphoma T): 49 ± 4%
Tumor cells co-cultured with endothelial cells + SP + Aprepitant ([6]; Non-Hodgkin's Lymphoma T): 83 ± 8%
Endothelial cells co-cultured with tumor cells + SP + Aprepitant ([6]; Renal carcinoma): 56 ± 2%
Tumor cells co-cultured with endothelial cells + SP + Aprepitant ([6]; Renal carcinoma): 53 ± 3%
Endothelial cells co-cultured with tumor cells + SP + Aprepitant ([6]; Sarcoma of Ewing): 45 ± 5%
Tumor cells co-cultured with endothelial cells + SP + Aprepitant ([6]; Sarcoma of Ewing): 45 ± 7%
